Measurements as given in ChEMBL document CHEMBL1201862, “PubChem BioAssay data set” (2004).
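All cell lines were grown in 96-well plates and treated with compound for 48 hours. Here, GI50 denotes the concentration required for 50% inhibition of growth.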 Active and inactive are the calls of the source. Rule as the data show it: active = GI50 up to about 1.1 µM and inactive = higher.

Assays:
Assay in all cases: NCI anticancer screen, dose series, 48 h
[1] = system: OVCAR-5
[2] = system: RPMI-8226
[3] = system: ACHN
[4] = system: SK-MEL-5
[5] = system: COLO 205
[6] = system: SK-MEL-28
[7] = system: UACC-257
[8] = system: MCF7
[9] = system: HOP-62
[10] = system: SK-OV-3
[11] = system: A549
[12] = system: HCT-116
[13] = system: DU-145
[14] = system: SF-268
[15] = system: HOP-92
[16] = system: MDA-N
[17] = system: HCC 2998
[18] = system: SN12C
[19] = system: LOX IMVI
[20] = system: OVCAR-3
[21] = system: KM12
[22] = system: HCT-15
[23] = system: M14
[24] = system: CCRF-CEM
[25] = system: TK-10
[26] = system: NCI/ADR-RES
[27] = system: SNB-75
[28] = system: NCI-H522
[29] = system: HL-60
[30] = system: OVCAR-8
[31] = system: PC-3
[32] = system: UO-31
[33] = system: Malme-3M
[34] = system: 786-0
[35] = system: HT-29
[36] = system: SF-295
[37] = system: SW-620
[38] = system: MDA-MB-231
[39] = system: T47D
[40] = system: SNB-19
[41] = system: SR
[42] = system: NCI-H23
[43] = system: MOLT-4
[44] = system: A498
[45] = system: NCI-H460
[46] = system: OVCAR-4
[47] = system: EKVX
[48] = system: Hs-578T
[49] = system: SF-539
[50] = system: UACC-62
[51] = system: IGROV-1
[52] = system: CAKI-1
[53] = system: MDA-MB-435
[54] = system: SK-MEL-2
[55] = system: U-251
[56] = system: K562
[57] = system: NCI-H226
[58] = system: RXF 393

CC1(C)CC[C@]2(C(=O)O)CC[C@]3(C)C(=CCC4=C5C[C@H](O)[C@H](O)[C@@](C)(CO)[C@@]5(C)CC[C@]43C)[C@@H]2C1
GI50 [1]: > 100 µM (inactive) | GI50 [2]: 43.8 µM (inactive) | GI50 [3]: > 100 µM (inactive) | GI50 [4]: 22.9 µM (inactive) | GI50 [5]: 15.2 µM (inactive) | GI50 [6]: > 100 µM (inactive) | GI50 [7]: 71 µM (inactive) | GI50 [8]: 44.6 µM (inactive) | GI50 [9]: > 100 µM (inactive) | GI50 [10]: > 100 µM (inactive) | GI50 [11]: 38.5 µM (inactive) | GI50 [12]: 31.3 µM (inactive) | GI50 [13]: 33.4 µM (inactive) | GI50 [14]: 51.4 µM (inactive) | GI50 [15]: > 100 µM (inactive) | GI50 [16]: 47.4 µM (inactive) | GI50 [17]: 24 µM (inactive) | GI50 [18]: 39.6 µM (inactive) | GI50 [19]: 35.7 µM (inactive) | GI50 [20]: > 100 µM (inactive) | GI50 [21]: 38.9 µM (inactive) | GI50 [22]: 38.9 µM | GI50 [23]: 66.2 µM (inactive) | GI50 [24]: 0.944 µM (active) | GI50 [25]: 53.6 µM (inactive) | GI50 [26]: 43.4 µM (inactive) | GI50 [27]: 26.7 µM (inactive) | GI50 [28]: 46.2 µM (inactive) | GI50 [29]: 6.05 µM (inactive) | GI50 [30]: 44.3 µM (inactive) | GI50 [31]: 59.3 µM (inactive) | GI50 [32]: 47.1 µM (inactive) | GI50 [33]: 69.2 µM (inactive) | GI50 [34]: 31.8 µM (inactive) | GI50 [35]: 41.5 µM (inactive) | GI50 [36]: 33.7 µM (inactive) | GI50 [37]: 95.1 µM (inactive) | GI50 [38]: > 100 µM (inactive) | GI50 [39]: 28.4 µM (inactive) | GI50 [40]: 16 µM (inactive) | GI50 [41]: > 100 µM (inactive) | GI50 [42]: 37.9 µM (inactive) | GI50 [43]: 47.3 µM (inactive) | GI50 [44]: 17.8 µM (inactive) | GI50 [45]: 30.4 µM (inactive) | GI50 [46]: 36.7 µM (inactive) | GI50 [47]: 51.5 µM (inactive) | GI50 [48]: 39.9 µM (inactive) | GI50 [49]: 56.9 µM (inactive) | GI50 [50]: 46 µM (inactive) | GI50 [51]: 36.9 µM (inactive) | GI50 [52]: 28.1 µM (inactive) | GI50 [53]: 62.1 µM (inactive) | GI50 [54]: 80.5 µM (inactive) | GI50 [55]: 48.2 µM (inactive) | GI50 [56]: 62.8 µM (inactive)

NC1=C(N2CCCCC2)C(=O)NC2=N/C(=C\c3ccco3)C(=O)N21
GI50 [57]: > 100 µM (inactive) | GI50 [1]: > 100 µM (inactive) | GI50 [2]: > 100 µM (inactive) | GI50 [3]: > 100 µM (inactive) | GI50 [4]: > 100 µM (inactive) | GI50 [5]: > 100 µM (inactive) | GI50 [6]: > 100 µM (inactive) | GI50 [7]: > 100 µM (inactive) | GI50 [10]: > 100 µM (inactive) | GI50 [11]: > 100 µM (inactive) | GI50 [12]: > 100 µM (inactive) | GI50 [13]: > 100 µM (inactive) | GI50 [14]: > 100 µM (inactive) | GI50 [15]: > 100 µM (inactive) | GI50 [16]: > 100 µM (inactive) | GI50 [18]: > 100 µM (inactive) | GI50 [19]: > 100 µM (inactive) | GI50 [21]: > 100 µM (inactive) | GI50 [22]: > 100 µM | GI50 [23]: > 100 µM (inactive) | GI50 [24]: > 100 µM (inactive) | GI50 [25]: > 100 µM (inactive) | GI50 [26]: > 100 µM (inactive) | GI50 [27]: > 100 µM (inactive) | GI50 [28]: > 100 µM (inactive) | GI50 [29]: > 100 µM (inactive) | GI50 [30]: > 100 µM (inactive) | GI50 [32]: > 100 µM (inactive) | GI50 [33]: > 100 µM (inactive) | GI50 [34]: > 100 µM (inactive) | GI50 [35]: > 100 µM (inactive) | GI50 [36]: > 100 µM (inactive) | GI50 [37]: > 100 µM (inactive) | GI50 [38]: > 100 µM (inactive) | GI50 [39]: > 100 µM (inactive) | GI50 [40]: > 100 µM (inactive) | GI50 [41]: 88.3 µM (inactive) | GI50 [42]: > 100 µM (inactive) | GI50 [43]: > 100 µM (inactive) | GI50 [44]: > 100 µM (inactive) | GI50 [58]: > 100 µM (inactive) | GI50 [46]: > 100 µM (inactive) | GI50 [47]: > 100 µM (inactive) | GI50 [48]: > 100 µM (inactive) | GI50 [49]: > 100 µM (inactive) | GI50 [51]: > 100 µM (inactive) | GI50 [52]: > 100 µM (inactive) | GI50 [53]: > 100 µM (inactive) | GI50 [55]: > 100 µM (inactive) | GI50 [56]: > 100 µM (inactive)
